{"source": "patent US20090275632A1", "about": "“Methods of diagnosis and treatment” (OncoMethylome Sciences SA, priority 2006, published 2009)", "key": {"[1]": {"system": "miR-124a", "test": "Expression analyses of miR-124a by RT-PCR in MCF-7 breast cancer cell line", "conditions": "MCF-7 cells (miR-124a methylated)"}, "[2]": {"system": "CDK6", "test": "Western blot for CDK6 in HCT-116 cells", "assay_type": "cell-based, human", "conditions": "AZA 1 µM 72 h, miR-124a precursor 100 nM RNA duplexes, 48 h after transfection", "description": "(§1) Analyses of CDK6 and phosphorylated Rb expression by Western blot, immunohistochemistry and RT-PCR. We collected cells by centrifugation and washed cell pellets twice with phosphate-buffered saline buffer. Total extracts were fractionated on a SDS-PAGE gel and transferred to a polyvinylidene difluoride membrane with […] (Immobilon PSQ, Millipore). The membranes were blocked in 5% milk PBS-T (phosphate-buffered saline with 0.1% Tween-20) and immunoprobed with antibodies against CDK6 (1:1000; Cell Signaling) and P-Rb-S807/811 (1:1000; Cell Signaling). An antibody to β-actin (1:5000; Sigma) was used as a loading control. Immunoreactive bands were visualized using a chemiluminescent substrate (Amersham) after incubation of the membrane with secondary antibodies conjugated to horseradish peroxidase."}, "[3]": {"system": "miR-124a CpG island", "test": "Chromatin immunoprecipitation assay for histone modification marks and methyl-CpG binding domain proteins", "assay_type": "cell-based, human", "conditions": "HCT-116 cells, 5-aza-2-deoxycytidine (1 µM) for 72 h", "procedure": "Standard ChIP assays were performed as previously described (3). In brief, cells were treated with 1% formaldehyde for 15 min. Then, chromatin was sheared with a Bioruptor™ (Diagenode) to an average length of 0.4-0.8 kb for this analysis. The following antibodies were used: anti-MeCP2 (ab3752), anti-MBD2 (ab3754), and anti-trimethyl-K4 histone H3 (ab8580) (ab1220) (Abcam) and anti-acetyl H3 (06-599) and anti-acetyl H4 (06-598) (Upstate biotechnologies). PCR amplification was performed in 20 μl with specific primers for each of the analyzed promoters.\nfor miR-124a1 5′-CM AGA GCC TTT GGA AGA CG-3′ (sense) (SEQ ID NO: 40) and 5′-GGAAGAGGGGTGGGTAGAAG-3′ (antisense) (SEQ ID NO: 41), for miR-124a2 5′-GCGTGGTCCTTAAAAACCTG-3′ (sense) (SEQ ID NO: 42) and 5′-CCATGCCATTTACAGCACAC-3′ (antisense) (SEQ ID NO: 43); and for miR-124a3 5′-GGA GM GTG TGG GCT CCT C-3′ (sense) (SEQ ID NO: 44) and 5′-AAT CM GGT CCG CTG TGA AC-3′ (antisense) (SEQ ID NO:45). For each promoter, the sensitivity of PCR amplification was evaluated on serial dilutions of total DNA collected after sonication (input fraction). PCR amplifications were carried out with a variable number of cycles at 94° C. for 30 s, 60° C. for 30 s and 72° C. for 30 s. The amplified DNA was separated on 2% agarose gel and visualized with ethidium bromide."}, "[4]": {"system": "Rb", "test": "Western blot for phosphorylated Rb (P-Rb-S807/811) in HCT-116 cells", "assay_type": "cell-based, human", "conditions": "AZA 1 µM 72 h, miR-124a precursor 100 nM RNA duplexes, 48 h after transfection", "description": "as §1"}, "[5]": {"system": "CDK6 mRNA", "test": "RT-PCR analyses of CDK6 mRNA in HCT-116 cells", "assay_type": "cell-based, human", "conditions": "AZA 1 µM 72 h, miR-124a precursor 100 nM RNA duplexes, 48 h after transfection"}, "[6]": {"system": "miR-124a", "test": "Expression of mature miR-124a by quantitative RT-PCR in HCT-116 cells", "assay_type": "cell-based, human", "conditions": "5-aza-2-deoxycytidine (1 µM) for 72 h", "procedure": "GAPDH was used as internal control. PCR products were analyzed in a 3% agarose gel. Realtime PCR analysis of miRNAs was performed as previously described (Biotechniques 39:519-525). In brief, total RNA was isolated from cell lines or tissues using Trizol reagent and the small RNA fraction was further isolated using the miRVANA kit (Ambion). 500 ng of the small RNA fraction was polyadenylated by poly(A) polymerase (PAP, Ambion) at 37° C. for 1 hr in a 6 uL reaction. After phenol-chloroform extraction and ethanol precipitation the polyadenylated small RNAs were reversed transcribed according to the manufacturer's protocols using 200U SuperScript-II Reverse Transcriptase (RT, Invitrogen) and 0.5 ug poly(T) adapter (GCG AGC ACA GM TTAATACGACTCACTATAGGTTTTTTTTTT TTV N) (SEQ ID NO:36). The small cDNAs were then treated with RNAse H at 37° C. for 1 hr and finally diluted 240 fold. Negative controls were included in both PAP and RT reactions. […] Finally, the melting temperature for each miRNA was experimentally determined from the thermal dissociation curves using ABI Prism 7900HT (Applied Biosystems, Foster City, Calif., USA). […]\nEach set of PCR reactions included a dilution series of a reference cDNA to be used for quantification."}, "[7]": {"system": "miR-124a", "test": "Expression of precursor miR-124a by conventional RT-PCR in HCT-116 cells", "assay_type": "cell-based, human", "conditions": "5-aza-2-deoxycytidine (1 µM) for 72 h", "procedure": "GAPDH was used as internal control. PCR products were analyzed in a 3% agarose gel. Realtime PCR analysis of miRNAs was performed as previously described (Biotechniques 39:519-525). In brief, total RNA was isolated from cell lines or tissues using Trizol reagent and the small RNA fraction was further isolated using the miRVANA kit (Ambion). 500 ng of the small RNA fraction was polyadenylated by poly(A) polymerase (PAP, Ambion) at 37° C. for 1 hr in a 6 uL reaction. After phenol-chloroform extraction and ethanol precipitation the polyadenylated small RNAs were reversed transcribed according to the manufacturer's protocols using 200U SuperScript-II Reverse Transcriptase (RT, Invitrogen) and 0.5 ug poly(T) adapter (GCG AGC ACA GM TTAATACGACTCACTATAGGTTTTTTTTTT TTV N) (SEQ ID NO:36). The small cDNAs were then treated with RNAse H at 37° C. for 1 hr and finally diluted 240 fold. Negative controls were included in both PAP and RT reactions. Moreover, two additional RT reactions were performed using half and double the input of polyadenylated small RNAs to ensure the linearity of the reverse transcription step. Finally, the melting temperature for each miRNA was experimentally determined from the thermal dissociation curves using ABI Prism 7900HT (Applied Biosystems, Foster City, Calif., USA). […]"}, "[8]": {"conditions": "listed as DNA demethylating agent"}}}
{"compound": "Nc1ncn([C@H]2C[C@H](O)[C@@H](CO)O2)c(=O)n1", "note": "[AZA, 5-aza-2′-deoxycytidine]", "values": [{"measurement": "miR-124a expression", "setting": "[1]", "value": "miR-124a upregulation"}, {"measurement": "CDK6 protein level", "setting": "[2]", "value": "reduction in CDK6 levels"}, {"measurement": "CDK6 protein level", "setting": "[2]; listed as demethylating agent", "value": "CDK6 downregulation"}, {"measurement": "histone modification marks linked to transcriptional activity (acetylation of histones H3 and H4, trimethylation of lysine 4 of histone H3) in the miR-124a CpG island", "setting": "[3]", "value": "the opposite scenario is observed"}, {"measurement": "occupancy of the miR-124a CpG island by MBDs (MeCP2 and MBD2)", "setting": "[3]", "value": "the opposite scenario is observed"}, {"measurement": "histone modification marks linked to transcriptional activity (acetylation of histones H3 and H4, trimethylation of lysine 4 of histone H3) in the miR-124a CpG island", "setting": "[3]; listed as demethylating agent", "value": "emergence of the histone marks of active transcription"}, {"measurement": "occupancy of the miR-124a CpG island by MBDs (MeCP2 and MBD2)", "setting": "[3]; listed as demethylating agent", "value": "release of binding by MBDs"}, {"measurement": "phosphorylation of Rb in the residues 807 and 811", "setting": "[4]; [8]", "value": "hypophosphorylated"}, {"measurement": "phosphorylation of Rb in the residues 807 and 811", "setting": "[4]; listed as demethylating drug", "value": "reduced Rb phosphorylation"}, {"measurement": "CDK6 mRNA expression level", "setting": "[5]", "value": "do not demonstrate any change"}, {"measurement": "CDK6 mRNA expression level", "setting": "[5]; listed as demethylating agent", "value": "no difference"}, {"measurement": "mature miR-124a expression", "setting": "[6]", "value": "miR-124a upregulation"}, {"measurement": "mature miR-124a expression", "setting": "[6]; [8]", "value": "restored"}, {"measurement": "precursor miR-124a expression", "setting": "[7]", "value": "miR-124a upregulation"}, {"measurement": "precursor miR-124a expression", "setting": "[7]; [8]", "value": "restored"}]}
